# Laboratory results taken from patent US20060069132A1, “Azolecarboxamide herbicides” (priority 2004, published 2006).
# Read-outs that look alike come from different tables or passages of the source.
# Assays:
# [1] = test system: giant foxtail; test: Test A pre-/postemergence herbicide test; format: in vivo, Setaria faberi; conditions: for pest or weed control at 500 g/ha / pest or weed control at 2000 g/ha: Setaria faberi, 240 h; for pest or weed control at 500 g/ha: 500 g ai/ha; for pest or weed control at 2000 g/ha: 2000 g ai/ha
# How it was run: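 Seeds sown in sandy loam received a preemergence directed soil spray of compound in non-phytotoxic solvent with surfactant; postemergence plants (2–10 cm, one- to two-leaf stage) were sprayed to runoff at the same time. After ~10 days in greenhouse, injury was rated visually versus untreated controls (0 = no effect, 100 = complete control).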
# [2] = test system: lambsquarters; test: Test B pre-/postemergence herbicide test; format: in vivo, Chenopodium album
# How it was run: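 Flooded paddy rice and barnyardgrass were treated at the 2-leaf stage; upland plantings received compound either on sown seed or on 1- to 4-leaf seedlings. All were kept 13–15 days in a greenhouse and scored visually, 0–100, relative to untreated plants.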
# [3] = test system: barnyardgrass; test: Test B flooded paddy test; format: in vivo, Echinochloa crus-galli; conditions: 1000 g ai/ha, visual rating, scale 0 to 100 (0 no effect, 100 complete control), 13 to 15 days
# How it was run: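 Scale 0–100: zero equals no visible effect, 100 complete control, judged by eye relative to controls. Timing: 13 to 15 days in greenhouse post-treatment. Growth stage at spraying: two leaves (paddy) or one to four leaves, 2–18 cm (postemergence).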
# [4] = test system: Surinam grass; test: Test C pre-/postemergence herbicide test; format: in vivo, Urochloa decumbens; conditions: for Surinam Grass plant response rating: 500 g ai/ha
# How it was run: (§1)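 Seeds were planted and sprayed preemergence with test chemicals in a non-phytotoxic solvent mixture containing surfactant; postemergence treatments went onto plants 2 to 18 cm tall (1- to 4-leaf stage). After 12 to 14 days in a greenhouse, injury was rated visually against untreated controls on a 0–100 scale.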
# [5] = test system: goosegrass; test: Test C pre-/postemergence herbicide test; format: in vivo, Eleusine indica; conditions: for Goosegrass plant response rating: 500 g ai/ha
# How it was run: as §1
# [6] = test system: pigweed; test: Test C pre-/postemergence herbicide test; format: in vivo, Amaranthus retroflexus; conditions: for Pigweed plant response rating: 500 g ai/ha
# How it was run: as §1
# [7] = test system: soybean; test: Test C pre-/postemergence herbicide test; format: in vivo, Glycine max; conditions: for Soybean plant response rating: 500 g ai/ha
# How it was run: as §1
# [8] = test system: rice; test: Test C flooded paddy test; format: in vivo, Oryza sativa
# How it was run: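 Injury scored visually against controls on a 0 (no effect) to 100 (complete control) scale, 12 to 14 days after treatment in greenhouse. Flooded paddy plants treated at 2-leaf stage; postemergence plants at 1- to 4-leaf stage, 2 to 18 cm tall.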
# [9] = post-emergence, Postemergence, 0 to 100 scale, 0 no effect, 100 complete control, read-out: Plant response rating, Foxtail, Giant
# [10] = 250 g ai/ha, scale 0 to 100 (0 no effect, 100 complete control), visual, 12 to 14 days, preemergence
# [11] = Postemergence, 250 g ai/ha, scale 0 to 100, 0 no effect, 100 complete control
# [12] = Preemergence, scale 0 to 100, 0 no effect, 100 complete control
# [13] = postemergence, 125 g ai/ha, scale 0 to 100
# [14] = postemergence, 62 g ai/ha, scale 0 to 100
compound,measurement,setting,value
"CCOC(=O)c1cccc(NC(=O)c2cc(C(C)(C)C)nn2CC)c1 [Compound 80, ethyl 3-[[[3-(1,1-dimethylethyl)-1-ethyl-1H-pyrazol-5-yl]carbonyl]-amino]benzoate]",pest or weed control at 500 g/ha,[1]; [9],80%
same,pest or weed control at 2000 g/ha,[1]; [9],90%
same,pest or weed control at 500 g/ha,"[1]; pre-emergence, Preemergence, visual rating, 0 to 100 scale (0 no effect, 100 complete control), read-out: Foxtail, Giant plant response rating",20%
same,pest or weed control at 2000 g/ha,"[1]; pre-emergence, Preemergence, 0 to 100 scale, 0 no effect, 100 complete control, read-out: Foxtail, Giant plant response rating",70%
same,pest or weed control at 500 g/ha,"[2]; Chenopodium album, post-emergence, 336 h, Postemergence, 500 g ai/ha, visual rating after 13 to 15 days, scale 0 (no effect) to 100 (complete control), read-out: Plant response rating, Lambsquarters",80%
same,pest or weed control at 125 g/ha,"[2]; Chenopodium album, post-emergence, 336 h, postemergence, 125 g ai/ha, visual rating, scale 0 (no effect) to 100 (complete control), read-out: Lambsquarters plant response rating",70%
same,pest or weed control at 125 g/ha,"[2]; Chenopodium album, pre-emergence, 336 h, preemergence, 125 g ai/ha, 0 to 100 scale, 0 is no effect, 100 is complete control, read-out: Plant response rating, Lambsquarters",0%
same,pest or weed control at 1000 g/ha,"[3]; Echinochloa crus-galli, 336 h, read-out: Barnyardgrass plant response rating",80%
same,"Plant response rating (0 = no effect, 100 = complete control), Surinam Grass","[4]; 62 g ai/ha, preemergence",0
same,pest or weed control at 250 g/ha,"[4]; Urochloa decumbens, post-emergence, 312 h, Postemergence, 250 g ai/ha, scale 0 to 100, 0 no effect, 100 complete control, read-out: Plant response rating, Surinam Grass",80%
same,pest or weed control at 125 g/ha,"[4]; Urochloa decumbens, post-emergence, 312 h, postemergence, 125 g ai/ha, scale 0 to 100, read-out: Plant response rating, Surinam Grass",80%
same,pest or weed control at 62 g/ha,"[4]; Urochloa decumbens, post-emergence, 312 h, postemergence, 62 g ai/ha, scale 0 to 100, read-out: Plant response rating, Surinam Grass",80%
same,pest or weed control at 31 g/ha,"[4]; Urochloa decumbens, pre-emergence, 312 h, 31 g ai/ha, preemergence, scale 0 to 100, read-out: Plant response rating, Surinam Grass",0%
same,pest or weed control at 125 g/ha,"[4]; Urochloa decumbens, pre-emergence, 312 h, 125 g ai/ha, scale 0 (no effect) to 100 (complete control), visual, 12 to 14 days, read-out: Plant response rating, Surinam Grass",10%
same,"Plant response rating (0 = no effect, 100 = complete control), Goosegrass","[5]; 62 g ai/ha, preemergence",10
same,pest or weed control at 250 g/ha,"[5]; Eleusine indica, post-emergence, 312 h, Postemergence, 250 g ai/ha, scale 0 to 100, 0 no effect, 100 complete control, read-out: Plant response rating, Goosegrass",80%
same,pest or weed control at 125 g/ha,"[5]; Eleusine indica, post-emergence, 312 h, postemergence, 125 g ai/ha, scale 0 to 100, read-out: Plant response rating, Goosegrass",80%
same,pest or weed control at 62 g/ha,"[5]; Eleusine indica, post-emergence, 312 h, postemergence, 62 g ai/ha, scale 0 to 100, read-out: Plant response rating, Goosegrass",80%
same,pest or weed control at 31 g/ha,"[5]; Eleusine indica, pre-emergence, 312 h, 31 g ai/ha, preemergence, scale 0 to 100, read-out: Plant response rating, Goosegrass",10%
same,pest or weed control at 125 g/ha,"[5]; Eleusine indica, pre-emergence, 312 h, 125 g ai/ha, scale 0 (no effect) to 100 (complete control), visual, 12 to 14 days, read-out: Plant response rating, Goosegrass",10%
same,"Plant response rating (0 = no effect, 100 = complete control), Pigweed","[6]; 62 g ai/ha, preemergence",40
same,pest or weed control at 250 g/ha,"[6]; Amaranthus retroflexus, post-emergence, Postemergence, 250 g ai/ha, scale 0 to 100, 0 no effect, 100 complete control, read-out: Plant response rating, Pigweed",100%
same,pest or weed control at 125 g/ha,"[6]; Amaranthus retroflexus, post-emergence, postemergence, 125 g ai/ha, scale 0 to 100, read-out: Plant response rating, Pigweed",100%
same,pest or weed control at 62 g/ha,"[6]; Amaranthus retroflexus, post-emergence, postemergence, 62 g ai/ha, scale 0 to 100, read-out: Plant response rating, Pigweed",100%
same,pest or weed control at 31 g/ha,"[6]; Amaranthus retroflexus, pre-emergence, 31 g ai/ha, preemergence, scale 0 to 100, read-out: Plant response rating, Pigweed",30%
same,pest or weed control at 125 g/ha,"[6]; Amaranthus retroflexus, pre-emergence, 125 g ai/ha, scale 0 (no effect) to 100 (complete control), visual, 12 to 14 days, read-out: Plant response rating, Pigweed",100%
same,"Plant response rating (0 = no effect, 100 = complete control), Soybean","[7]; 62 g ai/ha, preemergence",0
same,plant injury at 250 g/ha,"[7]; Glycine max, post-emergence, Postemergence, 250 g ai/ha, scale 0 to 100, 0 no effect, 100 complete control, read-out: Plant response rating, Soybean",100%
same,plant injury at 125 g/ha,"[7]; Glycine max, post-emergence, postemergence, 125 g ai/ha, scale 0 to 100, read-out: Plant response rating, Soybean",90%
same,plant injury at 62 g/ha,"[7]; Glycine max, post-emergence, postemergence, 62 g ai/ha, scale 0 to 100, read-out: Plant response rating, Soybean",90%
same,plant injury at 31 g/ha,"[7]; Glycine max, pre-emergence, 31 g ai/ha, preemergence, scale 0 to 100, read-out: Plant response rating, Soybean",0%
same,plant injury at 125 g/ha,"[7]; Glycine max, pre-emergence, 125 g ai/ha, scale 0 (no effect) to 100 (complete control), visual, 12 to 14 days, read-out: Plant response rating, Soybean",0%
same,plant injury at 62 g/ha,"[8]; Oryza sativa, 62 g ai/ha, scale 0 to 100 (0 no effect, 100 complete control), read-out: Rice plant response rating",20%
same,plant injury at 125 g/ha,"[8]; Oryza sativa, 125 g ai/ha, scale of 0 to 100, 0 is no effect, 100 is complete control, read-out: Rice plant response rating",40%
same,plant injury at 250 g/ha,"[8]; Oryza sativa, 250 g ai/ha, scale of 0 to 100, 0 is no effect, 100 is complete control, read-out: Rice plant response rating",40%
same,plant injury at 500 g/ha,"[8]; Oryza sativa, 500 g ai/ha, visual rating after 12 to 14 days, scale 0 to 100 (0 no effect, 100 complete control), read-out: Plant response rating, Rice",40%
CCNC(=O)c1cccc(NC(=O)c2cc(C(C)(C)C)nn2CC(F)(F)F)c1 [Compound 31],"Foxtail, Giant plant response rating","[1]; Postemergence, 250 g ai/ha, 0 to 100 scale, 0 no effect, 100 complete control",45
same,"Plant response rating, Foxtail, Giant","[1]; Postemergence, 1000 g ai/ha, 0 to 100 scale, 0 no effect, 100 complete control",70
same,"Foxtail, Giant plant response rating","[1]; Preemergence, 1000 g ai/ha, visual rating, 0 to 100 scale (0 no effect, 100 complete control)",50
same,"Foxtail, Giant plant response rating","[1]; preemergence, 250 g ai/ha, visual injury, 0 to 100 scale (0 no effect, 100 complete control)",20
same,Lambsquarters plant response rating,"[2]; Postemergence, 125 g ai/ha, scale 0 (no effect) to 100 (complete control)",90
same,"Plant response rating, Lambsquarters","[2]; Postemergence, 500 g ai/ha, visual rating after 13 to 15 days, scale 0 (no effect) to 100 (complete control)",90
same,Lambsquarters plant response rating,"[2]; Preemergence, 500 g ai/ha, scale 0 to 100",100
same,"Plant response rating, Lambsquarters","[2]; preemergence, 125 g ai/ha, 0 to 100 scale, 0 is no effect, 100 is complete control",90
same,Barnyardgrass plant response rating,[3],80
same,"Plant response rating (0 = no effect, 100 = complete control), Surinam Grass","[4]; 62 g ai/ha, preemergence",10
same,"Plant response rating, Surinam Grass",[4]; [10],30
same,Surinam Grass plant response rating,"[4]; Postemergence, scale 0 to 100",50
same,"Plant response rating, Surinam Grass",[4]; [11],50
same,Surinam Grass plant response rating,[4]; [12],60
same,"Plant response rating, Surinam Grass",[4]; [13],40
same,"Plant response rating, Surinam Grass",[4]; [14],30
same,"Plant response rating (0 = no effect, 100 = complete control), Goosegrass","[5]; 62 g ai/ha, preemergence",30
same,"Plant response rating, Goosegrass","[5]; 125 g ai/ha, scale 0-100, preemergence",30
same,"Plant response rating, Goosegrass",[5]; [10],40
same,Goosegrass plant response rating,"[5]; Postemergence, scale 0 to 100",40
same,"Plant response rating, Goosegrass","[5]; Postemergence, 125 g ai/ha, scale 0 to 100, 0 no effect, 100 complete control",30
same,"Plant response rating, Goosegrass",[5]; [11],40
same,Goosegrass plant response rating,[5]; [12],90
same,"Plant response rating, Goosegrass",[5]; [14],30
same,"Plant response rating (0 = no effect, 100 = complete control), Pigweed","[6]; 62 g ai/ha, preemergence",100
same,"Plant response rating, Pigweed",[6]; [10],100
same,Pigweed plant response rating,"[6]; Postemergence, scale 0 to 100",100
same,"Plant response rating, Pigweed",[6]; [11],100
same,Pigweed plant response rating,[6]; [12],100
same,"Plant response rating, Pigweed",[6]; [13],90
same,"Plant response rating, Pigweed",[6]; [14],90
same,"Plant response rating (0 = no effect, 100 = complete control), Soybean","[7]; 62 g ai/ha, preemergence",0
same,"Plant response rating, Soybean",[7]; [10],10
same,Soybean plant response rating,"[7]; Postemergence, scale 0 to 100",80
same,"Plant response rating, Soybean",[7]; [11],70
same,Soybean plant response rating,[7]; [12],20
same,"Plant response rating, Soybean",[7]; [13],50
same,"Plant response rating, Soybean",[7]; [14],30
same,Rice plant response rating,"[8]; 62 g ai/ha, scale 0 to 100 (0 no effect, 100 complete control)",0
same,Rice plant response rating,"[8]; 125 g ai/ha, scale of 0 to 100, 0 is no effect, 100 is complete control",10
same,"Plant response rating, Rice","[8]; 250 g ai/ha, visual rating after 12 to 14 days, scale 0 to 100 (0 no effect, 100 complete control)",40
same,"Plant response rating, Rice","[8]; 500 g ai/ha, visual rating after 12 to 14 days, scale 0 to 100 (0 no effect, 100 complete control)",50
